In ChEMBL document CHEMBL5230155, “Recent contributions of quinolines to antimalarial and anticancer drug discovery research” (Eur J Med Chem, 2021):

Experiments:
Hep 3B2 = test: Cytotoxicity against human Hep3B cells assessed as relative value at 15 uM after 48 hrs by MTS method; type: functional
Plasmodium berghei [1] = test: Antimalarial activity against Plasmodium berghei ANKA infected in mouse assessed increase in survival time at 20 mg/kg/day, ip for 4 days; type: functional; settings: time 4 day
Plasmodium berghei [2] = test: Antiplasmodial activity against Plasmodium berghei ANKA infected in mouse assessed as reduction in parasitaemia at 20 mg/kg/day, ip administered for 4 days; type: functional; parameters: scale not given: the % may be the effect or the level left; settings: time 4 day
Plasmodium falciparum [3] = test system: Plasmodium falciparum
Description: Antimalarial activity against CQ-sensitive Plasmodium falciparum NF54

PC-3 = test: Antiproliferative activity against human PC-3 cells; type: functional, cell-based
[4] = molecular target: Alkaline phosphatase, germ cell type (Homo sapiens, UniProt P10696); test: Inhibition of human germ cell alkaline phosphatase
MCF7 = test: Antiproliferative activity against human MCF7 cells; type: functional, cell-based; settings: Homo sapiens, MCF7
G-361 = test: Antiproliferative activity against human G-361 cells; type: functional, cell-based; settings: read-out: IC50
MDA-MB-453 = test: Antiproliferative activity against human MDA-MB-453 cells; type: functional, cell-based
SNU-423 = test: Antiproliferative activity against human SNU-423 cells; type: functional, cell-based
RT-112 = test: Antiproliferative activity against human RT-112 cells; type: functional, cell-based
Hemozoin = test: Inhibition of beta-hematin formation relative to control; settings: concentration not given here
HeLa = test: Antiproliferative activity against human HeLa cells; type: functional, cell-based
DLD-1 = test: Antiproliferative activity against human DLD-1 cells; type: functional, cell-based
[5] = molecular target: T1, Tyrosine-protein kinase receptor UFO (Homo sapiens, UniProt P30530); test: Inhibition of AXL (unknown origin)
T1 sequence (P30530 whole entry): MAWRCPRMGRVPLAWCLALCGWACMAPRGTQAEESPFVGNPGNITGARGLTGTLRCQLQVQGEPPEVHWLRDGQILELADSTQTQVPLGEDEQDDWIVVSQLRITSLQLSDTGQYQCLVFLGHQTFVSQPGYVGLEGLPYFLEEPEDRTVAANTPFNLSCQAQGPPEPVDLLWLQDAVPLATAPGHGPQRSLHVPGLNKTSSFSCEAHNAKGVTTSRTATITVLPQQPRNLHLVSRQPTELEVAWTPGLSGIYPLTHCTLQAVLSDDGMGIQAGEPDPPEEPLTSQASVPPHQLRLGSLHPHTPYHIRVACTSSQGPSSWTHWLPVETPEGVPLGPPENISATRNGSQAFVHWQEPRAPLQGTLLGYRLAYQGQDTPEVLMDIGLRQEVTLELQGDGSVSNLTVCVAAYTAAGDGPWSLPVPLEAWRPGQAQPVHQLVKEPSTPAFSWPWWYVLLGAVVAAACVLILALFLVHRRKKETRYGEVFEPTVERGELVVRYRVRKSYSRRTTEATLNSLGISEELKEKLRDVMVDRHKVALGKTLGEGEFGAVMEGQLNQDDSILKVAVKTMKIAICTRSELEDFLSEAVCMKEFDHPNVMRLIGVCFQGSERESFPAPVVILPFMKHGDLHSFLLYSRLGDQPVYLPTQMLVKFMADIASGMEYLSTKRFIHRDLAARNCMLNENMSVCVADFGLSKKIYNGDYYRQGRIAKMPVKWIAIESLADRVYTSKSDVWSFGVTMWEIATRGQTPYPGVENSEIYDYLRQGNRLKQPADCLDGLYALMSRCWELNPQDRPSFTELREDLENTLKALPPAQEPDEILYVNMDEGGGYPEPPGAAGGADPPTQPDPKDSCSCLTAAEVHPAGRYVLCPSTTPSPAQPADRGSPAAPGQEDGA

A549 = test: Cytotoxicity against human A549 cells; type: functional, cell-based
Plasmodium falciparum [6] = test: Antimalarial activity against CQ-sensitive Plasmodium falciparum 3D7; type: functional, organism-based
[7] = Cytotoxicity against african green monkey Vero cells; type: toxicity, cell-based; settings: African green monkey (Chlorocebus sabaeus)
[8] = Selectivity index, ratio of IC50 for African green monkey Vero cells to IC50 for CQ sensitive Plasmodium falciparum 3D7; type: toxicity; settings: read-out: Ratio IC50
Plasmodium falciparum [9] = test: Antimalarial activity against CQ-resistant Plasmodium falciparum RKL-9; type: functional, organism-based
Plasmodium falciparum [10] = test: Antimalarial activity against multidrug resistant Plasmodium falciparum Dd2; type: functional, organism-based
Plasmodium falciparum [11] = test: Antimalarial activity against CQ-sensitive Plasmodium falciparum D6; type: functional, organism-based
[12] = Inhibition of PI3K (unknown origin); parameters: species or system Homo sapiens
HCT-116 = test: Cytotoxicity against human HCT-116 cells; type: functional, cell-based
RPMI-8226 [13] = test: Cytotoxicity against human RPMI-8226 cells; type: functional, cell-based
RPMI-8226 [14] = test: Induction of apoptosis in human RPMI-8226 cells assessed as fold increase in cytochrome c level; type: functional
RPMI-8226 [15] = test: Induction of apoptosis in human RPMI-8226 cells assessed as fold increase in caspase-3 level; type: functional

Chain of Alkaline phosphatase, germ cell type (P10696 whole entry): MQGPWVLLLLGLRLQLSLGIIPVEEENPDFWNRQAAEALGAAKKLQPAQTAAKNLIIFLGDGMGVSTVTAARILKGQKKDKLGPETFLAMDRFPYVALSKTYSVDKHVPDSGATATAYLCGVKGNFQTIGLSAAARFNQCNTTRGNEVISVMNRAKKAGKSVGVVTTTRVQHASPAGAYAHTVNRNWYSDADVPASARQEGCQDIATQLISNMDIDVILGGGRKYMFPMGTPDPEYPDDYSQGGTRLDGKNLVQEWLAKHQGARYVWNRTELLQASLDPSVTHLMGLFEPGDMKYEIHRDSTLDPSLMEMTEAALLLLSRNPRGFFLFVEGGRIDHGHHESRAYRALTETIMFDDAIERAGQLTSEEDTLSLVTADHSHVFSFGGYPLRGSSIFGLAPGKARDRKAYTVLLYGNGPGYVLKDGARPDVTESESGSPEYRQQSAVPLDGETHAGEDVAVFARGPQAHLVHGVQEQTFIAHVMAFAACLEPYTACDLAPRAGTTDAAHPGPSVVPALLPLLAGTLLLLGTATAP

Which “fold change (FC)” value (Hep 3B2) does the source give for `O=S(=O)(Oc1c(Br)cc(Br)c2cccnc12)c1cccc2cccnc12` here?
Its value is 0.38.

For `COc1cc(/C=C/C(=O)c2cccc(Nc3ccnc4cc(Cl)ccc34)c2)cc(OC)c1OC`, which Time (Plasmodium berghei [1]) is on record?
Its Time is 24.6 days.

What about the Activity (Plasmodium berghei [2]) of the same molecule?
Its Activity is 1.4%.

For `Clc1ccc2c(N3CC(CN4CCCC4)N=N3)ccnc2c1` (stereo not drawn), which IC50 (Plasmodium falciparum [3]) is on record?
The IC50 was 206 nM.

For `Cc1cc2c(C(=O)Nc3nc4ccccc4s3)cc(O)nc2cc1Cl`, which IC50 (PC-3) is on record?
The IC50 was 18 nM.

What about the IC50 [4] of the same molecule?
The IC50 was less than 75 nM.

Which results are given for `COc1ccc2ccc(F)c(CC(=O)N/N=C/c3cc(OC)c(OC)c(OC)c3)c2n1`?
IC50 (MCF7): 2070 nM; IC50 (G-361): 2070 nM

For `COc1cc(N(CCCSC(=S)N2CCN(C)CC2)S(=O)(=O)c2cccc3cccnc23)cc(OC)c1OC`, which IC50 (MDA-MB-453) is on record?
The IC50 was 700 nM.

And the IC50 (SNU-423)?
The IC50 was 700 nM.

And the IC50 (RT-112)?
Its IC50 is 700 nM.

For `COc1ccc2nc(Cl)c(/C=C/C(=O)c3ccc(OC)c(OC)c3OC)cc2c1`, which inhibition (Hemozoin) is on record?
The inhibition was 61.3%.

What does the source list for `COc1ccc2nc(Cl)c(C3CC(c4ccc(C)cc4)=NN3c3nc(-c4ccc(Cl)cc4)cs3)cc2c1` (stereo not drawn)?
IC50 (HeLa): 38 nM; IC50 (MCF7): 38 nM; IC50 (DLD-1): 38 nM

With `COc1cc2c(Oc3ccc(NS(=O)(=O)c4cc(F)ccc4F)cc3F)ccnc2cc1OCCCN1CCCC(C)C1` (stereo not drawn) as the molecule, how does the IC50 [5] read?
Its IC50 is 21 nM.

For `CNS(=O)(=O)Nc1nccc(Cc2c(C)c3ccc(Oc4ncccn4)cc3oc2=O)c1F` [AVUTOMETINIB], which GI50 (A549) is on record?
Its GI50 is 3230 nM.

For `COc1cc2c(C(=O)Nc3nc4ccccc4s3)cc(O)nc2cc1Cl`, which IC50 [4] is on record?
Its IC50 is less than 75 nM.

What does the source list for `Cc1cc2nc(O)cc(C(=O)Nc3nc4ccccc4s3)c2cc1C`?
IC50 (PC-3): 48 nM; IC50 [4]: < 75 nM

Which IC50 (HeLa) does the source give for `COc1ccc2nc(Cl)c(C3CC(c4ccc(C)cc4)=NN3c3nc(C)c(/N=N/c4ccccc4)s3)cc2c1` (stereo not drawn) here?
The IC50 was 38 nM.

What about the IC50 (MCF7) of the same molecule?
The IC50 was 38 nM.

What about the IC50 (DLD-1) of the same molecule?
Its IC50 is 38 nM.

Which IC50 (MCF7) does the source give for `COc1ccc2ccc(F)c(CC(=O)N/N=C/c3ccc(C(F)(F)F)cc3)c2n1` here?
The IC50 was 2070 nM.

And the IC50 (G-361)?
Its IC50 is 2070 nM.

What does the source list for `O=C(Cn1cc(COc2ccc(Cl)cc2)nn1)NCCNc1ccnc2cc(Cl)ccc12`?
IC50 (Plasmodium falciparum [6]): 38.8 nM; IC50 [7]: > 5000 nM; selectivity ratio [8]: 714; IC50 (Plasmodium falciparum [9]): 75 nM

Which IC50 (Plasmodium falciparum [3]) does the source give for `Clc1ccc2c(N3CC(CN4CCOCC4)N=N3)ccnc2c1` (stereo not drawn) here?
Its IC50 is 4560 nM.

Which IC50 (Plasmodium falciparum [6]) does the source give for `O=C(Cn1cc(-c2ccccc2)nn1)NCCCNc1ccnc2cc(Cl)ccc12` here?
Its IC50 is 38.8 nM.

What about the IC50 [7] of the same molecule?
The IC50 was greater than 5000 nM.

With `Clc1ccc2c(N3CCN(CCCN4CCN(c5ccnc6cc(Cl)ccc56)CC4)CC3)ccnc2c1` [PIPERAQUINE] as the molecule, how does the IC50 (Plasmodium falciparum [10]) read?
Its IC50 is 1.5 nM.

What about the IC50 (Plasmodium falciparum [11]) of the same molecule?
Its IC50 is 0.7 nM.

With `CC(=O)c1ccc(C#Cc2c(C3CC3)nc3ccccc3c2-c2ccc(F)cc2)cc1` as the molecule, how does the IC50 [12] read?
Its IC50 is 450 nM.

What does the source list for `COc1ccc2nc(Cl)c(C3CC(c4ccc(C)cc4)=NN3c3nc(-c4ccc(C)cc4)cs3)cc2c1` (stereo not drawn)?
IC50 (HeLa): 38 nM; IC50 (MCF7): 38 nM; IC50 (DLD-1): 38 nM

With `O=S(=O)(Oc1cccc2cccnc12)c1ccc(CBr)cc1` as the molecule, how does the “fold change (FC)” value (Hep 3B2) read?
Its value is 0.25.

Which IC50 [12] does the source give for `O=C(O)c1cc(C#Cc2c(C3CC3)nc3ccccc3c2-c2ccc(F)cc2)ccc1Br` here?
The IC50 was 450 nM.

With `COc1ccc(/C=C/C(=O)c2cccc(Nc3ccnc4cc(Cl)ccc34)c2)cc1OC` as the molecule, how does the Time (Plasmodium berghei [1]) read?
The Time was 22.44 days.

What about the Activity (Plasmodium berghei [2]) of the same molecule?
Its Activity is 1.4%.

What does the source list for `CCN1CCN(C(=S)SCCCN(c2cc(OC)c(OC)c(OC)c2)S(=O)(=O)c2cccc3cccnc23)CC1`?
IC50 (MDA-MB-453): 700 nM; IC50 (SNU-423): 700 nM; IC50 (RT-112): 700 nM

For `COc1cc2c(Oc3ccc(NS(=O)(=O)c4ccccc4C(F)(F)F)cc3F)ccnc2cc1OCCCN1CCC(C)CC1`, which IC50 [5] is on record?
Its IC50 is 21 nM.

Which results are given for `COc1cc(N(CCCSC(=S)N2CCN(CCO)CC2)S(=O)(=O)c2cccc3cccnc23)cc(OC)c1OC`?
IC50 (MDA-MB-453): 700 nM; IC50 (SNU-423): 700 nM; IC50 (RT-112): 700 nM

What does the source list for `Cc1ccc2nc(SCc3ccccc3)c(/C=[N+](\[O-])c3ccccc3)cc2c1`?
IC50 (HCT-116): 450 nM; IC50 (RPMI-8226 [13]): 450 nM; fold change (FC) (RPMI-8226 [14]): 4; fold change (FC) (RPMI-8226 [15]): 12
